Experimental data taken from patent publication US10065990B2, “Cyclic peptide compound, and preparation method, pharmaceutical composition and use thereof” (HANGZHOU GUANYU BIO-MEDICAL CO., LTD, priority 2013, dated 2018).
Where two headings read alike, the source gives them in different places.

Key:
[1] = target: T1, HDAC7 (Homo sapiens, UniProt Q8WUI4); test: HDAC biochemical activity measurement (fluorescent substrate deacetylation);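 further: fluorogenic deacetylation assay using acetyl-lysine substrate at 20 µM, enzyme and compound incubated 30 min at 37 °C, then developer added, fluorescence read at 360/460 nm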; settings: HDAC7; 37° C. 30 minutes
T1 sequence (Q8WUI4 1-952): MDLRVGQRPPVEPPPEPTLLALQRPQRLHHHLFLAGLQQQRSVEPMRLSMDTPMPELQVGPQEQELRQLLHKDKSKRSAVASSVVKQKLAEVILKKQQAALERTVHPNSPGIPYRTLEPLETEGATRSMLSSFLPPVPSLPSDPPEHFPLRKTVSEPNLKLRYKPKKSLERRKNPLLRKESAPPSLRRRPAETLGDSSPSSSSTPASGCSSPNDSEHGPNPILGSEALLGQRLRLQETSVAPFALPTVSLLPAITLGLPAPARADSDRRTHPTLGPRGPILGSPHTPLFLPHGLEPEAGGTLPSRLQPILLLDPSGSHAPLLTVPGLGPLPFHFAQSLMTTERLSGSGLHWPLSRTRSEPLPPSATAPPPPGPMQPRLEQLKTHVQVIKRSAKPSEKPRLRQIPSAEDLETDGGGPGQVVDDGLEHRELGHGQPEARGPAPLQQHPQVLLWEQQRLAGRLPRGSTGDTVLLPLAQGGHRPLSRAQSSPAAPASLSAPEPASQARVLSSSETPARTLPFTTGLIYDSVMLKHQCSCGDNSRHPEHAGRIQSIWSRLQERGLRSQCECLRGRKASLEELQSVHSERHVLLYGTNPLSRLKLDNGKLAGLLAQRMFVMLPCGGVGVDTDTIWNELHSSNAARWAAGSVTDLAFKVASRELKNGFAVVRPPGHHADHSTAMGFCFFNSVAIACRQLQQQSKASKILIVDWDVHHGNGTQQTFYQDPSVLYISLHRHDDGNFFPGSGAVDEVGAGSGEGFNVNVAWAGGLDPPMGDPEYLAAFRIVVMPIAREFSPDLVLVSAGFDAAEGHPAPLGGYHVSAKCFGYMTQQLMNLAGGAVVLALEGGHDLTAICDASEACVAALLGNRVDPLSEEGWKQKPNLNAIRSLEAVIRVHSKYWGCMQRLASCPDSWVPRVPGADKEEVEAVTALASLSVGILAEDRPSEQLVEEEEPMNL
Description: The chemical activity of the compound is determined according to the degree of deacetylation inhibition of the HDAC enzyme. This experiment measured the degree of deacetylation related to tumor proliferation and metastasis of HDAC1, HDAC2, HDAC3, HDAC8, HDAC11 five subtypes HDAC enzymes. After the substrate containing an acetylated lysine side chain and HDAC enzyme are labeled with a fluorescent label, the fluorescent substrate is de acetyl. The fluorescent labeled substrate is cleaved by the enzyme, and the fluorescent substance is released, which generates 460 nm emission light under the excitation of 360 nm light.
HDAC substrate was diluted with reaction buffer to 200M (reaction concentration of 20M), the HDAC enzyme was diluted to the appropriate concentration, then added different concentrations of the test compounds and acted at 37° C. 30 minutes, and then added the same volume of 2-times concentration substrate developing solution (developer), incubated at room temperature for 15 minutes. Finally, the last reading measured with a microplate plate reader, excitation light was 360 nm, the emitted light was 460 nm, data processing software was Prime 4, and the results are shown in Table 1.

[2] = tested on: MOLT-4 (human acute lymphoblastic leukemia cells); test: MTT cancer cell growth inhibition; format: cell-based; settings: Homo sapiens, MOLT-4, 72 h, MTT, 72 hours incubation, read-out: GI50 Mol
Outline: (§1)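 Cells seeded at 1500/well in DMEM or RPMI 1640 with 10% FBS, incubated overnight, then exposed to compound at 10^−5 to 10^−10 M final in triplicate for 72 h at 37° C, 5% CO2. MTT added for 4 h, formazan dissolved in DMSO, absorbance read at 570 nm; GI50 derived from viability.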

[3] = tested on: MCF-7 (human breast cancer cells); test: MTT cancer cell growth inhibition; format: cell-based; settings: Homo sapiens, MCF7, 72 h, 72 hours incubation, read-out: GI50 MCF
Outline: as §1

[4] = tested on: HCC827 (human non-small cell lung cancer cells); test: MTT cancer cell growth inhibition; format: cell-based; settings: Homo sapiens, HCC827, 72 h, MTT, 72 hours incubation, HCC827 cells; read-out: GI50 HCC827
Outline: as §1

[5] = tested on: lncap (prostate cancer cells); test: MTT cancer cell growth inhibition; format: cell-based; settings: Homo sapiens, LNCaP, 72 h, MTT, 72 hours incubation, read-out: GI50 lnca
Outline: as §1

[6] = tested on: Huh-7 (human hepatoma cells); test: MTT cancer cell growth inhibition; format: cell-based; settings: Homo sapiens, Huh-7, 72 h, MTT, 72 hours incubation, Huh-7 cells; read-out: GI50 Huh-7
Outline: as §1

[7] = tested on: H1975 (non-small cell lung adenocarcinoma); test: MTT cancer cell growth inhibition; format: cell-based; settings: Homo sapiens, NCI-H1975, 72 h, MTT, 72 hours incubation, H1975 cells; read-out: GI50 H1975
Outline: as §1

[8] = tested on: PANC-1 (Pac-1, human pancreatic cancer cells); test: MTT cancer cell growth inhibition; format: cell-based; settings: Homo sapiens, PANC-1, 72 h, MTT, 72 hours incubation, read-out: GI50 PAN
Outline: as §1

[9] = tested on: KBM5-T315I (human chronic myelogenous leukemia); test: MTT cancer cell growth inhibition; format: cell-based; settings: Homo sapiens, 72 h, MTT, 72 hours incubation, KBM5-T315I cells; read-out: GI50 KBM5-T315I
Outline: as §1

[10] = tested on: A549 (human lung cancer cells); test: MTT cancer cell growth inhibition; format: cell-based; settings: Homo sapiens, A549, 72 h, MTT, 72 hours incubation, read-out: GI50 A54
Outline: as §1

[11] = tested on: KBM-5 (human chronic myelogenous leukemia); test: MTT cancer cell growth inhibition; format: cell-based; settings: Homo sapiens, KBM5, 72 h, MTT, 72 hours incubation, KBM-5 cells; read-out: GI50 KBM-5
Outline: as §1

[12] = tested on: MDA-MB-231 (breast cancer cells); test: MTT cancer cell growth inhibition; format: cell-based; settings: Homo sapiens, MDA-MB-231, 72 h, read-out: GI50 MDA-MB-231, MTT, 72 hours incubation, MDA-MB-231 cells
Outline: as §1

[13] = tested on: HT1080 (human fibrosarcoma cells); test: MTT cancer cell growth inhibition; format: cell-based; settings: Homo sapiens, HT-1080, 72 h, MTT, 72 hours incubation, read-out: GI50 HT1
Outline: as §1

[14] = tested on: DU145 (human prostate cancer cells); test: MTT cancer cell growth inhibition; format: cell-based; settings: Homo sapiens, DU-145, 72 h, MTT, 72 hours incubation, read-out: GI50 Du1
Outline: as §1

[15] = tested on: U937 (human leukemia cells); test: MTT cancer cell growth inhibition; format: cell-based; settings: Homo sapiens, U-937, 72 h, MTT, 72 hours incubation, read-out: GI50 U93
Outline: as §1

[16] = tested on: SGC-7901 (human gastric cancer cells); test: MTT cancer cell growth inhibition; format: cell-based; settings: Homo sapiens, SGC-7901, 72 h, MTT, 72 hours incubation, SGC-7901 cells; read-out: GI50 SGC-7901
Outline: as §1

[17] = tested on: N-87 (human gastric cancer cells); test: MTT cancer cell growth inhibition; format: cell-based; settings: Homo sapiens, 72 h, MTT, 72 hours incubation, N-87 cells; read-out: GI50 N-87
Outline: as §1

[18] = tested on: BGC-823 (human gastric cancer cells); test: MTT cancer cell growth inhibition; format: cell-based; settings: Homo sapiens, BGC-823, 72 h, MTT, 72 hours incubation, read-out: GI50 BG
Outline: as §1

[19] = tested on: Hela (human cervical cancer cells); test: MTT cancer cell growth inhibition; format: cell-based; settings: Homo sapiens, HeLa, 72 h, MTT, 72 hours incubation, read-out: GI50 Hela
Outline: as §1

[20] = tested on: K562 (human leukemia cells); test: MTT cancer cell growth inhibition; format: cell-based; settings: Homo sapiens, K562, 72 h, MTT, 72 hours incubation, K562 cells; read-out: GI50 K562
Outline: as §1

[21] = tested on: Bel-7402 (human hepatoma cells); test: MTT cancer cell growth inhibition; format: cell-based; settings: Homo sapiens, Bel-7402, 72 h, MTT, 72 hours incubation, Bel-7402 cells; read-out: GI50 Bel-7402
Outline: as §1

IC50 HDAC7 [1]	GI50 [2] [nM]	GI50 [3] [nM]	GI50 [4] [nM]	GI50 [5] [nM]	GI50 [6] [nM]	GI50 [7] [nM]	GI50 [8] [nM]	GI50 [9] [nM]	GI50 [10] [nM]	GI50 [11] [nM]	GI50 [12] [nM]	GI50 [13] [nM]	GI50 [14] [nM]	GI50 [15] [nM]	GI50 [16] [nM]	GI50 [17] [nM]	GI50 [18] [nM]	GI50 [20] [nM]	GI50 [21] [nM]	SMILES	further results
no activity	20	10	88	20	31	58	70	22	60	19	24	70	40	60	69	31	60	42	16	C/C=C1\NC(=O)c2ncc(F)c(n2)CNC(=O)C[C@@H](/C=C/CCSC(C)=O)OC(=O)[C@H](C)NC1=O [Compound 99]	GI50 [19]: 60 nM
no activity	20	60	53	20	41	35	80	57	30	41	31	80	40	30	39	61	60	29	27	C/C=C1\NC(=O)c2ccc(F)c(n2)CNC(=O)C[C@@H](/C=C/CCS)OC(=O)[C@H](CCCCN)NC1=O [Compound 118]	GI50 [19]: 70 nM
no activity	90	70	73	60	75	49	80	34	80	36	25	90	70	80	63	32	80	53	42	C/C=C1\NC(=O)c2nccc(n2)CNC(=O)C[C@@H](/C=C/CCS)OC(=O)[C@H](C(C)C)NC1=O [Compound 143]	GI50 [19]: 60 nM
no activity	–	–	32	–	23	45	–	41	–	35	78	–	–	–	31	84	–	26	73	C/C=C1\NC(=O)c2cc(SC)cc(n2)CNC(=O)C[C@@H](/C=C/CCSC(=O)CCCCCCC)OC(=O)[C@H](CC)NC1=O [Compound 172]	GI50 ([2]; MOLT-4 cells): 20 nM; GI50 ([3]; MCF-7 cells): 60 nM; GI50 ([5]; lncap cells): 20 nM; GI50 ([8]; PANC-1 cells): 80 nM; GI50 ([10]; A549 cells): 30 nM; GI50 ([13]; HT1080 cells): 60 nM; GI50 ([14]; DU145 cells): 40 nM; GI50 ([15]; U937 cells): 40 nM; GI50 ([18]; BGC-823 cells): 60 nM; GI50 ([19]; Hela cells): 50 nM
no activity	20	20	86	20	66	72	60	59	60	22	58	40	10	30	33	16	70	35	34	C/C=C1\NC(=O)c2cc(F)cc(n2)CNC(=O)C[C@@H](/C=C/CCS)OC(=O)[C@H](CCCCN)NC1=O [Compound 117]	GI50 [19]: 80 nM
no activity	30	70	82	30	37	39	80	74	50	61	37	80	30	30	59	59	50	38	82	C/C=C1\NC(=O)c2ccc(F)c(n2)CNC(=O)C[C@@H](/C=C/CCSC(C)=O)OC(=O)[C@H](CC)NC1=O [Example 59]	GI50 [19]: 60 nM
no activity	–	–	67	–	26	35	–	49	–	18	18	–	–	–	26	56	–	76	17	CSc1cc2nc(c1)C(=O)NC(=C(C)C)C(=O)N[C@@H](C(C)C)C(=O)O[C@H](/C=C/CCSC(C)=O)CC(=O)NC2 [Compound 208]	GI50 ([2]; MOLT-4 cells): 40 nM; GI50 ([3]; MCF-7 cells): 30 nM; GI50 ([5]; lncap cells): 30 nM; GI50 ([8]; PANC-1 cells): 30 nM; GI50 ([10]; A549 cells): 50 nM; GI50 ([13]; HT1080 cells): 70 nM; GI50 ([14]; DU145 cells): 40 nM; GI50 ([15]; U937 cells): 60 nM; GI50 ([18]; BGC-823 cells): 50 nM; GI50 ([19]; Hela cells): 80 nM
